Source: US20080021026A1, “BENZOTHIOPHENE INHIBITORS OF RHO KINASE” (priority 2006, published 2008)
Read-outs that look alike come from different tables or passages of the source.

Tests used:
[1] = target: T1, recombinant N-terminal GST-tagged human Rho kinase 2 (ROCK2, amino acids 1-552) (Homo sapiens, UniProt O75116); assay: In vitro Rho kinase assay (luciferase-based ATP consumption), ROCK2; assay type: biochemical
T1 construct: ROCK2, amino acids 1-552; purchased Invitrogen Inc. PV3759
Method in brief: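 GST-ROCK2 (aa 1-552, 0.82 μg/ml) with 100 μg/ml S6 peptide and 3 µM ATP in Tris pH 7.5 buffer with MgCl2/CaCl2/EGTA/BSA, compound added just after reaction start, 2 h at 30 °C. Remaining ATP read by luciferase luminescence. Efficacy expressed as percentage of H-1152P positive control.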

[2] = target: T2, recombinant N-terminal GST-tagged human Rho kinase 1 (ROCK1, amino acids 1-535) (Homo sapiens, UniProt Q13464); assay: In vitro Rho kinase assay (luciferase-based ATP consumption), ROCK1; assay type: biochemical
T2 construct: ROCK1, amino acids 1-535; purchased Invitrogen Inc. PV-3691
Method in brief: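 GST-ROCK1 (aa 1-535) at 0.82 μg/ml with 100 μg/ml S6 peptide and 3 µM ATP in Tris pH 7.5 buffer with MgCl2, CaCl2, EGTA, BSA; compound added after reaction start, 2 h at 30 °C. Remaining ATP read by luciferase luminescence; efficacy as percent of H-1152P positive control.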

[3] = recombinant GST-tagged human ROCK2, luciferase-based ATP consumption, read-out: ROCK2 IC50
[4] = recombinant GST-tagged human ROCK1, luciferase-based ATP consumption, read-out: ROCK1 IC50
[5] = ROCK2 IC50, recombinant GST-tagged human ROCK2, luciferase-based ATP consumption
[6] = ROCK1 IC50, recombinant GST-tagged human ROCK1, luciferase-based ATP consumption

T1 sequence (O75116 1-552): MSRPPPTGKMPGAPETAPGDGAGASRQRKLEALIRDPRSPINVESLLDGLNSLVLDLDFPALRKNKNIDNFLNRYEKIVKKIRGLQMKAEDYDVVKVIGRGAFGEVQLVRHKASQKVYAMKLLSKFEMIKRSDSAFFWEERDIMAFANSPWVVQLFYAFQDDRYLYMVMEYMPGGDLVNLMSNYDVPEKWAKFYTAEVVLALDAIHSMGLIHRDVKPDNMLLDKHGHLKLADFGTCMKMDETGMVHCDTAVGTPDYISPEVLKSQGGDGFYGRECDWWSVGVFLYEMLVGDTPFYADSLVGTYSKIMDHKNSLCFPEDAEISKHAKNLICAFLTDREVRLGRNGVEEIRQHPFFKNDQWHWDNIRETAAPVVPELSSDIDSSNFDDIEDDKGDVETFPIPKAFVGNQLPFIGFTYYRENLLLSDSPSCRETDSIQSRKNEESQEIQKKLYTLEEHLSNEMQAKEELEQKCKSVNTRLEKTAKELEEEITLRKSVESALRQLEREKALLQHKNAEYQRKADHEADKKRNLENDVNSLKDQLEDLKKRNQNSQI
T2 sequence (Q13464 1-535): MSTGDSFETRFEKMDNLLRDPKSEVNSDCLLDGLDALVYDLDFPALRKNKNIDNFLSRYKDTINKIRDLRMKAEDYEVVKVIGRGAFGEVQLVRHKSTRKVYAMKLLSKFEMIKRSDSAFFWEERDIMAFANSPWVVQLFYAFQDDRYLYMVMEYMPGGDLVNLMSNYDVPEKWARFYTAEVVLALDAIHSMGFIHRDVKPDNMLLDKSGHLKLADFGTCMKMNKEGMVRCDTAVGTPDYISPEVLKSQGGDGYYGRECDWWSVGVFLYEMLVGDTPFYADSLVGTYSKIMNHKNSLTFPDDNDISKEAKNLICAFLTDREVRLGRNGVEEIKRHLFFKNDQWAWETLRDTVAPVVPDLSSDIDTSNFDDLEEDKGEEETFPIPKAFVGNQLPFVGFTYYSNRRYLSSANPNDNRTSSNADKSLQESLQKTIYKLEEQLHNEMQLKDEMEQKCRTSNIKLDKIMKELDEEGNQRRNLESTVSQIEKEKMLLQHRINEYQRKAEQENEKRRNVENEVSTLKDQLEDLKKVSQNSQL

Structure (SMILES)	IC50 [1, 3]	IC50 [2, 4]	IC50 [1, 5]	IC50 [2, 6]
Cc1c(-c2ccnc(N)n2)sc2ccc(CN)cc12 [Example 33, 4-(5-(Aminomethyl)-3-methylbenzo[b]thiophen-2-yl)pyrimidin-2-amine]	< 5 µM	< 5 µM	–	–
Cc1c(-c2ccnc(N)n2)sc2ccc(CNC(=O)c3cccnc3Cl)cc12 [Example 149, Cc1c(sc2ccc(CNC(═O)c3cccnc3Cl)cc12)-c4ccnc(N)n4]	–	–	< 5 µM	> 5 µM
Cc1c(-c2ccnc(N)n2)sc2ccc(CNC(=O)c3c(O)ccc4ccccc34)cc12 [Example 237, Cc1c(sc2ccc(CNC(═O)c3c(O)ccc4ccccc34)cc12)-c5ccnc(N)n5]	< 5 µM	< 5 µM	–	–
Cc1c(-c2ccnc(N)n2)sc2ccc(Nc3ccc4c(c3)OCO4)cc12 [Example 70, 4-(5-(Benzo[d][1,3]dioxol-5-ylamino)-3-methylbenzo[b]thiophen-2-yl)pyrimidin-2-amine]	< 5 µM	< 5 µM	–	–
Cc1c(-c2ccnc(N)n2)sc2ccc(CNC(=O)c3ccc(Br)cc3)cc12 [Example 263, Cc1c(sc2ccc(CNC(═O)c3ccc(Br)cc3)cc12)-c4ccnc(N)n4]	< 5 µM	> 5 µM	–	–
Cc1c(-c2ccnc(N)n2)sc2ccc(CNC(=O)c3ccc([N+](=O)[O-])c(O)c3)cc12 [Example 226, Cc1c(sc2ccc(CNC(═O)c3ccc(c(O)c3)[N+]([O−])═O)cc12)-c4ccnc(N)n4]	< 5 µM	> 5 µM	–	–
Cc1c(-c2ccnc(N)n2)sc2ccc(CNC(=O)c3ccc(C(C)C)cc3)cc12 [Example 166, CC(C)c1ccc(cc1)C(═O)NCc2ccc3sc(c(C)c3c2)-c4ccnc(N)n4]	> 5 µM	> 5 µM	–	–
Cc1c(-c2ccnc(N)n2)sc2ccc(CNC(=O)c3cccc(F)c3)cc12 [Example 124, Cc1c(sc2ccc(CNC(═O)c3cccc(F)c3)cc12)-c4ccnc(N)n4]	< 5 µM	> 5 µM	–	–
Cc1c(-c2ccnc(N)n2)sc2ccc(CNC(=O)c3cnc[nH]3)cc12 [Example 102, Cc1c(sc2ccc(CNC(═O)c3cnc[nH]3)cc12)-c4ccnc(N)n4]	< 5 µM	< 5 µM	–	–
COc1cc(OC)c(C(=O)NCc2ccc3sc(-c4ccnc(N)n4)c(C)c3c2)c(OC)c1 [Example 277, COc1cc(OC)c(C(═O)NCc2ccc3sc(c(C)c3c2)-c4ccnc(N)n4)c(OC)c1]	< 5 µM	< 5 µM	–	–
Cc1c(-c2cccnc2N)sc2ccc(Cl)cc12 [Example 11, 3-(5-Chloro-3-methylbenzo[b]thiophen-2-yl)pyridin-2-amine]	> 5 µM	> 5 µM	–	–
Cc1c(-c2ccnc(N)n2)sc2ccc(CNC(=O)c3c(Cl)cc(Cl)cc3Cl)cc12 [Example 300, Cc1c(sc2ccc(CNC(═O)c3c(Cl)cc(Cl)cc3Cl)cc12)-c4ccnc(N)n4]	–	–	< 5 µM	> 5 µM
COC(=O)c1ccc(C(=O)NCc2ccc3sc(-c4ccnc(N)n4)c(C)c3c2)cc1 [Example 209, COC(═O)c1ccc(cc1)C(═O)NCc2ccc3sc(c(C)c3c2)-c4ccnc(N)n4]	< 5 µM	< 5 µM	–	–
Cc1c(-c2ccnc(N)n2)oc2ccc(Cc3cccc(O)c3)cc12 [Example 92, 3-((2-(2-Aminopyrimidin-4-yl)-3-methylbenzofuran-5-yl)methyl)phenol]	< 5 µM	< 5 µM	–	–
Cc1c(-c2ccnc(N)n2)sc2ccc(Cc3cccc(C(=O)N4CCN(C)CC4)c3)cc12 [Example 50, (3-((2-(2-Aminopyrimidin-4-yl)-3-methylbenzo[b]thiophen-5-yl)methyl)phenyl)(4-methylpiperazin-1-yl)methanone]	< 5 µM	< 5 µM	–	–
CC(=O)NCc1ccc2sc(-c3ccnc(N)n3)c(C)c2c1 [Example 95, CC(═O)NCc1ccc2sc(c(C)c2c1)-c3ccnc(N)n3]	> 5 µM	> 5 µM	–	–
Cc1c(-c2ccnc(N)n2)sc2ccc(CNC(=O)c3ccc(Oc4cccc(O)c4)cc3)cc12 [Example 306, Cc1c(sc2ccc(CNC(═O)c3ccc(Oc4cccc(O)c4)cc3)cc12)-c5ccnc(N)n5]	< 5 µM	> 5 µM	–	–
CCCCCCCC(=O)NCc1ccc2sc(-c3ccnc(N)n3)c(C)c2c1 [Example 125]	< 5 µM	> 5 µM	–	–
Cc1c(-c2ccnc(N)n2)sc2ccc(CNC(=O)c3cc(O)ccc3O)cc12 [Example 142, Cc1c(sc2ccc(CNC(═O)c3cc(O)ccc3O)cc12)-c4ccnc(N)n4]	< 5 µM	> 5 µM	–	–

Structure (SMILES)	IC50 [1, 3]	IC50 [2, 4]	IC50 [1, 5]	IC50 [2, 6]
CCN(CC)CCNc1nccc(Nc2ccc3sc(-c4ccnc(N)n4)c(C)c3c2)n1 [Example 77, N^4-(2-(2-Aminopyrimidin-4-yl)-3-methylbenzo[b]thiophen-5-yl)-N^2-(2-(diethylamino)ethyl)pyrimidine-2,4-diamine]	< 5 µM	< 5 µM	–	–
Cc1c(-c2ccnc(N)n2)sc2ccc(CNC(=O)c3cc(F)c(F)c(O)c3F)cc12 [Example 248, Cc1c(sc2ccc(CNC(═O)c3cc(F)c(F)c(O)c3F)cc12)-c4ccnc(N)n4]	< 5 µM	< 5 µM	–	–
Cc1c(-c2ccnc(N)n2)sc2ccc(Cc3cccc(C(=O)O)c3)cc12 [Example 41, 3-((2-(2-Aminopyrimidin-4-yl)-3-methylbenzo[b]thiophen-5-yl)methyl)benzoic acid]	< 5 µM	< 5 µM	–	–
Cc1cccc([N+](=O)[O-])c1C(=O)NCc1ccc2sc(-c3ccnc(N)n3)c(C)c2c1 [Example 215, Cc1cccc(c1C(═O)NCc2ccc3sc(c(C)c3c2)-c4ccnc(N)n4)[N+]([O−])═O]	< 5 µM	> 5 µM	–	–
Cc1c(-c2ccnc(N)n2)sc2ccc(CNC(=O)C(Cc3ccccc3)NC(=O)OC(C)(C)C)cc12 (stereo not shown) [Example 325, Cc1c(sc2ccc(CNC(═O)[C](Cc3ccccc3)NC(═O)OC(C)(C)C)cc12)-c4ccnc(N)n4]	> 5 µM	< 5 µM	–	–
COc1cccc(Sc2ccc3sc(-c4ccnc(N)n4)c(C)c3c2)c1 [Example 83, 4-(5-(3-Methoxyphenylthio)-3-methylbenzo[b]thiophen-2-yl)pyrimidin-2-amine]	< 5 µM	< 5 µM	–	–
Cc1c(-c2ccnc(N)n2)sc2ccc(Cc3cccc(OCCN(C)C)c3)cc12 [Example 30, 4-(5-(3-(2-(Dimethylamino)ethoxy)benzyl)-3-methylbenzo[b]thiophen-2-yl)pyrimidin-2-amine]	< 5 µM	< 5 µM	–	–
Cc1c(-c2ccnc(N)n2)sc2ccc(CNC(=O)c3cc4ccccc4cc3O)cc12 [Example 238, Cc1c(sc2ccc(CNC(═O)c3cc4ccccc4cc3O)cc12)-c5ccnc(N)n5]	< 5 µM	< 5 µM	–	–
Cc1c(-c2ccnc(N)n2)sc2ccc(CNC(=O)c3cccc(Cl)c3Cl)cc12 [Example 245, Cc1c(sc2ccc(CNC(═O)c3cccc(Cl)c3Cl)cc12)-c4ccnc(N)n4]	–	–	< 5 µM	> 5 µM
CCN(CC)c1ccc(C(=O)NCc2ccc3sc(-c4ccnc(N)n4)c(C)c3c2)cc1 [Example 254, CCN(CC)c1ccc(cc1)C(═O)NCc2ccc3sc(c(C)c3c2)-c4ccnc(N)n4]	< 5 µM	> 5 µM	–	–
Cc1c(-c2ccnc(N)n2)sc2ccc(CNC(=O)c3ccc(Cl)cc3Cl)cc12 [Example 246, Cc1c(sc2ccc(CNC(═O)c3ccc(Cl)cc3Cl)cc12)-c4ccnc(N)n4]	–	–	< 5 µM	< 5 µM
Nc1nccc(-c2sc3ccc(Cl)cc3c2-c2ccccc2)n1 [Example 17, 4-(5-Chloro-3-phenylbenzo[b]thiophen-2-yl)pyrimidin-2-amine]	> 5 µM	> 5 µM	–	–
COc1ccc([N+](=O)[O-])c(C(=O)NCc2ccc3sc(-c4ccnc(N)n4)c(C)c3c2)c1 [Example 259, COc1ccc(c(c1)C(═O)NCc2ccc3sc(c(C)c3c2)-c4ccnc(N)n4)[N+]([O−])═O]	< 5 µM	< 5 µM	–	–
CC(=O)c1ccc(C(=O)NCc2ccc3sc(-c4ccnc(N)n4)c(C)c3c2)cc1 [Example 162, CC(═O)c1ccc(Cc1)C(═O)NCc2ccc3sc(c(C)c3c2)-c4ccnc(N)n4]	< 5 µM	> 5 µM	–	–
Cc1c(-c2ccnc(N)n2)sc2ccc(CNC(=O)C(NC(=O)OC(C)(C)C)C(C)C)cc12 (stereo not shown) [Example 292, CC(C)[C](NC(═O)OC(C)(C)C)C(═O)NCc1ccc2sc(c(C)c2c1)-c3ccnc(N)n3]	> 5 µM	< 5 µM	–	–
COc1cccc(C(N)c2ccc3sc(-c4ccnc(N)n4)c(C)c3c2)c1 (stereo not shown) [Example 32, 4-(5-(Amino(3-methoxyphenyl)methyl)-3-methylbenzo[b]thiophen-2-yl)pyrimidin-2-amine]	< 5 µM	< 5 µM	–	–
Cc1c(-c2ccnc(N)n2)sc2ccc(C(=O)Nc3ccc(OCCN4CCOCC4)cc3)cc12 [Example 21, 2-(2-Aminopyrimidin-4-yl)-3-methyl-N-(4-(2-morpholinoethoxy)phenyl)benzo[b]thiophene-5-carboxamide]	< 5 µM	< 5 µM	–	–
Cc1c(-c2ccnc(N)n2)sc2ccc(CNC(=O)c3cccc(O)c3)cc12 [Example 121, Cc1c(sc2ccc(CNC(═O)c3cccc(O)c3)cc12)-c4ccnc(N)n4]	< 5 µM	< 5 µM	–	–
Cc1c(-c2ccnc(N)n2)sc2ccc(CNC(=O)C(CC(C)C)NC(=O)OC(C)(C)C)cc12 (stereo not shown) [Example 323, CC(C)C[C](NC(═O)OC(C)(C)C)C(═O)NCc1ccc2sc(c(C)c2c1)-c3ccnc(N)n3]	> 5 µM	< 5 µM	–	–
